From article PMC11711184, “Structural basis of THC analog activity at the Cannabinoid 1 receptor” (Nature Communications, 2025)

target: T1, CB1 (CB1-Nluc) (Homo sapiens, UniProt P21554); assay: NanoBRET venus-mini-Gsi recruitment; type: cell-based
T1 construct: gene CNR1; CB1 with C-terminal NanoLuc (CB1-Nluc), stably co-expressed in HEK293-TR cells with NES-venus-mini-Gsi (Gs-based chimera with Gi1 C-terminal residues) as BRET acceptor
T1 sequence (P21554 whole entry): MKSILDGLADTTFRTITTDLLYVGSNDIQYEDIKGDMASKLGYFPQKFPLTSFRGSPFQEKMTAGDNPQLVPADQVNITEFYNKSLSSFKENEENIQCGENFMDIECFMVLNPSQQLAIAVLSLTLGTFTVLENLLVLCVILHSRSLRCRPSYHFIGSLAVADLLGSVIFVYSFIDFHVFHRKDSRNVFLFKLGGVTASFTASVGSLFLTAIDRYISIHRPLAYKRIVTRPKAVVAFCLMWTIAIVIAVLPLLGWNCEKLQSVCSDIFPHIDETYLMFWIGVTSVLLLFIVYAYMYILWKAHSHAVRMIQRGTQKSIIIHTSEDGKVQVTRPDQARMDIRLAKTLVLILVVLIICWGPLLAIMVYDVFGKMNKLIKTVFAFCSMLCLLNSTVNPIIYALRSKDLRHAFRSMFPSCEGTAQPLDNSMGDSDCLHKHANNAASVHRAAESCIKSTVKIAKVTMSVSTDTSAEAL

Row | Compound | EC50 [nM]
1 | CC(C)(CCCCCCN=C=S)c1cc(O)c2c(c1)OC(C)(C)[C@@H]1CC[C@@H](CO)C[C@@H]21 [AM841, (6aR,9 R,10aR)-9-(hydroxymethyl)-3-(8-isothiocyanato-2-methyloctan-2-yl)-6,6-dimethyl-6a,7,8,9,10,10a-hexahydro-6H-benzo[c]chromen-1-ol] | 3.39
2 | CC1=CC[C@@H]2[C@@H](C1)c1c(O)cc(C(C)(C)CCCCCCBr)cc1OC2(C)C [AM11542, (6aR,10aR)-3-(8-bromo-2-methyloctan-2-yl)-6,6,9-trimethyl-6a,7,10,10a-tetrahydro-6H-benzo[c]chromen-1-ol] | 3.39
3 | CCCCCCC(C)(C)c1cc(O)c2c(c1)OC(C)(C)[C@@H]1CC=C(CO)C[C@@H]21 [HU210, (6aR)-trans-3-(1,1-Dimethylheptyl)-6a,7,10,10a-tetrahydro-1-hydroxy-6,6-dimethyl-6H-dibenzo[b,d]pyran-9-methanol] | 2.4
4 | CCCCCCC(C)(C)c1cc(O)c2c(c1)OC(C)(C)[C@@H]1CC[C@@H](CO)C[C@@H]21 [HU243] | 2.04
5 | CCCC(C)(C)c1ccc2c(c1)OC(C)(C)[C@@H]1CC=C(C)C[C@@H]21 [JWH133, (6aR,10aR)-3-(1,1-Dimethylbutyl)-6a,7,10,10a-tetrahydro-6,6,9-trimethyl-6H-dibenzo[b,d]pyran] | 1150
6 | CCCCCCC(C)(C)c1cc(OC)c2c(c1)OC(C)(C)[C@@H]1CC=C(C)C[C@@H]21 [L759633] | 417
7 | CCCCCCC(C)(C)c1cc(O)c2c(c1)OC(C)(C)C1CCC(=O)CC21 (centres unmarked) [Nabilone] | 13.8
8 | CCCc1cc(O)c2c(c1)OC(C)(C)[C@@H]1CCC(C)=C[C@@H]21 [THCv] | 200
